Entries after “also recorded” stand apart in the source; their conditions may differ. Where two headings read alike, the source gives them in different places. Marks after values point to notes of the source that are not given here.
Experiments:
[1] = Interaction and stability testing of ibuprofen and diphenhydramine in one composition; assay type: physicochemical; conditions: dissolution, appearance, potency
Text: An ion pair or salt could, thus, be formed. Such an interaction creates a more nonpolar composition, which may have different dissolution characteristics and absorption profile in the body. Such changes in a pharmaceutical composition may be highly undesirable, due to unpredictability of effect.

[2] = tested on: patients evaluated for sleep disturbances after oral surgery; assay: Study A: single dose after oral surgery, ibuprofen, diphenhydramine and combination vs placebo; assay type: in vivo, human; conditions: diphenhydramine HCl 50 mg; for Duration of Sleep: 6-point categorical scale 0 (≦5 hours) to 5 (≧9 hours); for Global Evaluation: global evaluation of sleep, 5-point categorical scale; for Cumulative % Asleep at 60 minutes: nurse graded; for Sleep Latency (median): nurse observed, single dose ibuprofen 400 mg; for Time to Rescue (median): nurse recorded; for SPRID3: time-weighted sum of pain relief and pain intensity differences over 0-3 hours
Text: A single center, inpatient, single dose, randomized (stratified by gender and baseline pain severity), double blind, double dummy, parallel group placebo controlled study was used.
In a double dummy scenario, patients are given multiple dosage forms, one study medication for the group in which they are assigned, and placebos resembling the dosage forms for the other study groups. […] The combination was in a soft gelatin capsule formulation.
The art recognizes that patient-assessed duration of sleep is a very good indicator of the amount of sleep received by the patient. If patients requested rescue medication within an hour of receiving treatment, they were considered protocol violators and removed from the study.
The SPRID3 calculation was as follows. AT 90 minutes, 2 hours, and 3 hours, the patients were woken and asked two questions: how much relief of pain have you had? (no relief=0, a little=1, some=2, a lot=3, complete=4) and what is the severity of your pain? (none=0, mild=1, moderate=2, severe=3). Pain intensity difference (PID) was determined by subtracting the severity of pain score at the time in question to the baseline score measured before treatment. The pain relief rating (PPR) was then added to the PID for a PRID score. The PRID scores were plotted on a graph over time for each patient, and the SPRID3 score was read as the area under the curve for each patient's PRID plot. SPRID3 is a combination measurement of pain relief and pain severity.
In this model, only one hour of phase shifting sleeplessness was induced, compared to three hours in subsequent studies. In other words, patients were required to go to sleep one hour earlier than their bedtime.

[3] = tested on: normal sleep patterns in humans; conditions: cited from earlier work
[4] = tested on: subjects with pain following oral surgery, bedtime at least 3 hours early; assay: Study C (AE-98-02): ibuprofen/diphenhydramine combination vs ibuprofen alone after oral surgery; assay type: in vivo, human
Description: This was a randomized stratified (by baseline pain and gender), inpatient, placebo-controlled, partial-factorial, single-dose, double-blind, parallel group, single-center trial. Following oral surgery, subjects were housed and observed at a clinic site overnight. When subjects experienced at least moderate pain and it was between approximately 6:30 PM and 8:00 PM (at least 3 hours earlier than their usual bedtime), they received study medication and were required to go to bed for the evening. Sleep was evaluated by an observer at regular intervals over 3 hours post-dosing. […] Subjects also provided subjective assessments of sleep efficacy as well as global assessments of the study medication as a sleep-aid and as an analgesic the next morning (or at the time rescue medication was used).
The patients were assessed for duration of sleep, cumulative percent of subjects asleep at 60 minutes post-dosing (based on observed sleep latency assessments). they were also assessed for pain using SPRID2 (time-weighted sum of pain relief and pain intensity differences from baseline over 0-2 hours). Sleep latency (observer based), ease of falling asleep, and global evaluation of sleep were also used.
Cumulative percent of subjects asleep by 60 minutes was analyzed by the Cochran-Mantel-Haenszel test controlling for baseline PSR and gender. Subjective sleep and pain assessments were analyzed by analysis of variance (ANOVA), incorporating effects for treatment, baseline pain severity rating (PSR), and gender in the model. The distributions of sleep latency and time to rescue medication were assessed using the Kaplan-Meier estimates, and the variables were analyzed using the Cox proportional hazards (PH) regression model with treatment, baseline PSR, and gender effects. For both ANOVA and PH models, the interactions of treatment-by-baseline PSR and treatment-by-gender were assessed (at the 0.15 level) in separate models by adding each interaction term, one at a time, to the initial model. If each interaction was generally significant (p≦0.15), it was retained in the final model. In the assessment of treatment effects in the presence of interactions, each level of the stratifying variable was to be weighted equally.
In order to protect the Type I error at the 0.05 level, comparisons were tested in sequential order for the primary as well as the secondary efficacy endpoints. Each step had to be significant for the subsequent steps to be eligible for significance. […] The secondary end points were assessed, at the 0.05 level of significance, in a similar sequential order. The primary analysis of efficacy was based on the intent-to-treat (ITT) population, which included all randomized subjects who took study medication and had at least one post-baseline (sleep and pain) efficacy assessment.

[5] = tested on: subjects of the partial factorial studies (pain after oral surgery); assay: Pooled data of studies AE-98-01/02; assay type: in vivo, human; conditions: for % who required remed.: Pooled Studies AE-98-01/02
Text: Data from two of the studies were pooled together. Some of the most significant study data are presented in Table 7, with graphical representations of the data in FIGS. 28-29.

[6] = oral administration, cited from earlier work
[7] = tested on: patients with pain following oral surgery, bedtime 3 hours early; assay: Study B (AE-98-01): ibuprofen/diphenhydramine combination vs ibuprofen alone and placebo after oral surgery; assay type: in vivo, human
Description: This study was conducted in a similar manner to Example 1.
The placebo group also received soft gelatin capsules.
The trial was conducted as a randomized, stratified (by baseline pain and gender), inpatient, placebo controlled, partial factorial, single dose, double blind, parallel group, single center trial. Following oral surgery, patients were kept at the clinic site overnight. Study medications were dispenses when patients experienced pain at a moderate level or greater, and when it was between about 6:30 and 8:00 p.m. (3 hours prior to the patient's usual bedtime). Patients were required to go to sleep after receiving study medication.
The same sleep parameters were used as in Example 1. Additionally, global assessment as a pain reliever was determined. This parameter was a patient-assessed parameter made at the time of rescue medication, if needed, or in the morning, if no rescue medication. Pain relief was assessed on a five-point scale (0=poor, 1=fair, 2=good, 3=very good, 4=excellent). Sleep was monitored by an observer at regular intervals over 3 hours post-dosing. Patients provided pain assessments at 90 and 120 minutes post-dosing. Patients also provided subjective assessments of sleep efficacy, global assessments of sleep and pain the next morning or at the time rescue medication was used.
The following statistical methods were used. All analyses were done using SAS® Version 6.12. Subjective sleep and pain assessments were analyzed by analysis of variance (ANOVA), incorporating effects for treatment, baseline pain severity rating (PSR), and gender in the model. In addition, the interactions of treatment-by-baseline PSR and treatment-by-gender were assessed (at the 0.15 level) in separate models, by adding interaction terms, one at a time, to the initial ANOVA model. The distributions of sleep latency and time to rescue medication were assessed using the Kaplan-Meier estimates, and the variables were analyzed using the Cox proportional hazards regression model with treatment, baseline PSR and gender effects. In addition, the interactions of treatment-by-baseline PSR and treatment-by-gender were assessed (at the 0.15 level) in separate models by adding each interaction term, one at a time, to the initial model.
If each interaction was generally significant (p≦0.15), it was retained in the final model. In the assessment of treatment effects in the presence of interactions, each level of the stratifying variable were to be weighted equally (consistent with the ANOVA models). Ninety-five percent confidence intervals for the median time to sleep and median time to rescue medication were derived. In addition, the actual and cumulative proportion of subjects asleep at each observation time point and the cumulative proportion of subjects who took rescue medication by each observation time point were analyzed by the Cochran-Mantel-Haenszel test controlling for baseline PSR and gender.
In order to protect the Type I error at the 0.05 level, comparisons were tested in sequential order. Each step had to be significant for the subsequent steps to be eligible for significance.
The secondary end points were assessed at the 0.05 level of significance, in the same sequential order.
The primary analysis of efficacy was conducted on the intent-to-treat population, which included all randomized subjects who took the study medication and had at least one post-baseline (sleep and pain) efficacy assessment.

[8] = Study C, 5-point scale 0=poor to 4=excellent, IBU 400 mg, DPH 50 mg
[9] = Study B, 5-point scale 0=poor to 4=excellent, IBU 400 mg, DPH 50 mg

SMILES: CN(C)CCOC(c1ccccc1)c1ccccc1 [DPH, 2-(diphenylmethoxy)-N,N-dimethylethylamine]
- interaction between ibuprofen and diphenhydramine in the composition [1]: much more prone to interaction than the citrate form
- Duration of Sleep ([2]; ibuprofen 400 mg): 0.23 A
- Global Evaluation ([2]; ibuprofen 400 mg): 0.77 A
- % Requiring Rescue ([2]; ibuprofen 400 mg): 97% B
- Cumulative % Asleep at 60 minutes ([2]; ibuprofen 400 mg): 61.3 A %
- Sleep Latency (median) [2]: 51.3 A
- Time to Rescue (median) ([2]; ibuprofen 400 mg): 2.04 A hours
- SPRID3 ([2]; ibuprofen 400 mg): 1.8 A

SMILES: CC(C)Cc1ccc(C(C)C(=O)O)cc1 (centres unmarked) [IBU, Ibuprofen]
- effect on sleep (Gengo 1996) ([3]; healthy adults): no impact on sleep
- effect on sleep (Murphy et al. 1994) ([3]; patients not suffering from pain): increase the number of awakenings and percentage of time spent in stage wake, and decrease sleep efficiency; also recorded: delay the onset of deeper stages of sleep
- Ease of Falling Asleep ([4]; Study C, 5-point scale 0-4, IBU 400 mg, DPH 50 mg): 1.89^†
- Global Assessment as a Pain Reliever [4, 8]: 2.51^†
- Global Assessment as a Sleep-Aid [4, 8]: 1.57^†
- Duration of Sleep ([4]; Study C, 6-point categorical scale, IBU 400 mg, DPH 50 mg, soft gelatin capsules): 1.98^†
- PRID 90 minutes ([4]; Study C, 90 minutes post-dosing, IBU 400 mg, DPH 50 mg): 3.83^†,§
- PRID 120 minutes ([4]; Study C, 120 minutes post-dosing, IBU 400 mg, DPH 50 mg): 4.13^†
- % Requiring Rescue Medication for Any Reason ([4]; Study C, IBU 400 mg, DPH 50 mg): 42.3^† %
- Cumulative % Asleep at 60 minutes ([4]; Study C, IBU 400 mg, DPH 50 mg): 75.6^† %
- Time to Rescue Medication for Any Reason ([4]; Study C, IBU 400 mg, DPH 50 mg): >12^† hours
- SPRID2 ([4]; Study C, over 0-2 hours, IBU 400 mg, DPH 50 mg): 7.81^†,§
- % who required remed. ([4]; Table 7, Study AE-98-02): (42%)
- Time to Remed. ([4]; Table 7, Study AE-98-02): >12.0 B hrs.
- Global Eval - Sleep-Aid ([4]; Table 7, Study AE-98-02, 5-point scale 0-Poor to 4 = Excellent): 1.57 B
- Duration of Sleep ([4]; Table 7, Study AE-98-02, 6-point scale 0 = <5 hrs to 5 = >9 hrs): 1.98 B
- Ease of Falling Asleep ([2]; 5-point scale 0=did not fall asleep to 4=very easy, ibuprofen 400 mg): 2.10 B
- Duration of Sleep ([2]; ibuprofen 400 mg): 2.68 B
- Global Evaluation ([2]; ibuprofen 400 mg): 1.84 B
- % Requiring Rescue ([2]; ibuprofen 400 mg): 45% B
- Cumulative % Asleep at 60 minutes ([2]; ibuprofen 400 mg): 77.4 AB %
- Sleep Latency (median) [2]: 25 min
- Sleep Latency (median) ([2]; listed as ibuprofen): significantly better than the diphenhydramine and placebo groups
- Time to Rescue (median) ([2]; ibuprofen 400 mg): >10 B hours
- SPRID3 ([2]; ibuprofen 400 mg): 13.7 B
- % who required remed. [5]: (45%)
- % who required remed. ([5]; listed as ibuprofen): 45%
- Time to Remed. ([5]; Table 7, Pooled Studies AE-98-01/02): >12.0 B hrs.
- Duration of Sleep ([5]; Table 7, Pooled Studies AE-98-01/02, 6-point scale): 2.12 B
- Global Eval - Sleep-Aid ([5]; Table 7, pooled studies, 5-point scale 0-Poor to 4 = Excellent): 1.60 B
- subjects who slept for less than 5 hours ([5]; pooled data): 32%
- time to peak serum concentrations ([6]; suspensions): ≤ 1 h
- time to peak serum concentrations ([6]; tablets): ≤ 2 h
- Ease of Falling Asleep - mean ([7]; Study B, 5-point scale 0-4, IBU 400 mg, DPH 50 mg): 1.81*
- Global Assessment as a Pain Reliever [7, 9]: 2.30*
- Global Assessment as a Sleep-Aid [7, 9]: 1.63*
- Duration of Sleep - mean ([7]; Study B, 6-point categorical scale, IBU 400 mg, DPH 50 mg): 2.26*
- PRID 90 minutes ([7]; Study B, 90 minutes post-dosing, IBU 400 mg, DPH 50 mg): 3.72*
- PRID 120 minutes ([7]; Study B, 120 minutes post-dosing, IBU 400 mg, DPH 50 mg): 4.09*
- % Requiring Rescue Medication for Any Reason ([7]; Study B, IBU 400 mg, DPH 50 mg): 48.3* %
- SPRID2 ([7]; Study B, IBU 400 mg, DPH 50 mg): 7.63*
- Sleep Latency (Observed) - median ([7]; Study B, IBU 400 mg, DPH 50 mg): 44.0* minutes
- Time to Rescue Medication for Any Reason ([7]; Study B, IBU 400 mg, DPH 50 mg): >12* hours
- Cumulative % Asleep at 60 minutes ([7]; Study B, IBU 400 mg, DPH 50 mg, soft gelatin capsules): 64.4^† %
- % who required remed. ([7]; Table 7, Study AE-98-01): (48%)
- Time to Remed. ([7]; Table 7, Study AE-98-01): >12.0 B hrs.
- Global Eval - Sleep-Aid ([7]; Table 7, Study AE-98-01, 5-point scale 0-Poor to 4 = Excellent): 1.63 B
- Duration of Sleep ([7]; Table 7, Study AE-98-01, 6-point scale 0 = <5 hrs to 5 = >9 hrs): 2.26 B

From patent publication US8883849B2, “Treatment of sleep disturbances” (Wyeth LLC, priority 2001, dated 2014)
